According to publication PMC10148601 (Analytica Chimica Acta, 2023):
“Also recorded” adds a separate entry of the source. Bridge positions count the residues as written; N and C are the ends. Ends that are not written are not given here.

How the values were obtained:
SARS-CoV-2 NP [1] = target: T1, SARS-CoV-2 NP (Severe acute respiratory syndrome coronavirus 2, UniProt P0DTC9)
SARS-CoV-2 NP [2] = target: T1, SARS-CoV-2 NP; remark: listed apart in the source
[3] = tested on: SARS-CoV-2 NP versus SARS-CoV NP, MERS-CoV NP, HCoV-OC43 NP, SARS-CoV-2 S1, S-RBD, MERS-CoV S1, VEGF165, HSA, AFP, CEA, BSA; assay type: binding; settings: n = 3
SARS-CoV-2 NP [4] = target: T1, SARS-CoV-2 NP; remark: listed apart in the source

Sequence	binding to SARS-CoV-2 NP (positive clone) (SARS-CoV-2 NP [1])	relative affinity for NP (SARS-CoV-2 NP [1])	Frequency among sequenced phage clones (SARS-CoV-2 NP [2])	specificity of binding [3]	binding specificity and affinity in words (SARS-CoV-2 NP [4])
ACGTKPTKFC (disulfide 2-10 (inferred)) [N1]	have the ability to bind to SARS-CoV-2 NP with a significant difference compared to the control (P < 0.001)	may have higher affinity for NP than the other clones	6/26	specifically recognizes SARS-CoV-2 NP; also recorded: binds specifically to SARS-CoV-2 NP; also recorded: has the best specificity	–
ACGTKPTKFCGGGGGS (disulfide 2-10 (inferred)) [peptide probe N1]	–	–	–	–	binds to SARS-CoV-2 NP with good specificity and high affinity
ACLKTYWYNC (disulfide 2-10 (inferred)) [N5]	have the ability to bind to SARS-CoV-2 NP with a significant difference compared to the control (P < 0.001)	may have higher affinity for NP than the other clones	2/26	can bind to either MERS-CoV NP, SARS-CoV NP, or HCoV-OC43 NP; also recorded: limited selectivity	–
ACTPRSANYC (disulfide 2-10 (inferred)) [N4]	–	–	3/26	can bind to either MERS-CoV NP, SARS-CoV NP, or HCoV-OC43 NP; also recorded: limited selectivity	–
